Measurements published in PMC3706879, “The neurotrophic compound J147 reverses cognitive impairment in aged Alzheimer's disease mice” (Alzheimer's Research & Therapy, 2013).

How the values were obtained:
[1] = target: T1, monoamine oxidase B (MAO B) (Homo sapiens, UniProt P27338); assay: monoamine oxidase B assay (MDS Pharma Services); type: biochemical
T1 sequence (P27338 1-520): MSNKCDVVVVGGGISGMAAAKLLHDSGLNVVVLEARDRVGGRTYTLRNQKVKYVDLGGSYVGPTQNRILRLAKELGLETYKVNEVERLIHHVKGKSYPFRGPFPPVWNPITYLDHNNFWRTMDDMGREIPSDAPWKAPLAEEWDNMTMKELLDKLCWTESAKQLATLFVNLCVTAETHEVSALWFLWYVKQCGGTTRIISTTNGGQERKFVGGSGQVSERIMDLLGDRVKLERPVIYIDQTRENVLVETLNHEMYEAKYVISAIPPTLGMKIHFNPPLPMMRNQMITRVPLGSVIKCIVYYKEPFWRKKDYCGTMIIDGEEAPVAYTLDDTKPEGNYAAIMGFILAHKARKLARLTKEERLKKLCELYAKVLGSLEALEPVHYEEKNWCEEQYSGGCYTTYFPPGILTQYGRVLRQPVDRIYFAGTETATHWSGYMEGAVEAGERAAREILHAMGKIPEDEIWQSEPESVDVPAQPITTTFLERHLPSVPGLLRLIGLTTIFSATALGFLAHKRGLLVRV
Procedure: All screening was done at 10 μM J147 by various contract research organizations (CROs), including MDS Pharma Services (King of Prussia, PA, USA), Ricerca, now Panlabs (Concord, OH, USA), Ambit (La Jolla, CA, USA), Caliper (Hopkinton, MA, USA) and NovaScreen Biosciences (Hanover, MD, USA) by standard protocols described in their catalogs.

Rats = assay: acute toxicity in rats (Absorption Systems); type: in vivo; details: 2 g/kg
Procedure: The pharmacokinetics of J147 in the mouse brain and plasma were evaluated using standard procedures. Blood and brain distribution of J147 following per oral (PO) administration was plotted for mice as a function of time (Figure 5). […] Additional de-risking and target identification screens were carried out at 10 μM J147 by various CROs (Table 2). […] All original data are available upon request.

C57BL/6J mice = assay: fear conditioning, scopolamine induced memory impairment; type: in vivo; details: scopolamine 1 mg/kg i.p.; J147 200 ppm, donepezil 20 ppm in food; vs scopolamine
Procedure: A total of 60 male mice aged eight weeks were housed 4 per cage and were divided into five groups with 12 mice per group. Treatments were administered in the food (TestDiet® 5015, Richmond, IN, USA) for a period of two weeks before commencement of behavioral testing. […] Following two weeks of treatment, memory impairment was induced by intraperitoneal (i.p.) injection of scopolamine (1 mg/kg) 30 minutes prior to each of the following behavioral tests: Y-maze, probe trial of the water maze and contextual and cued fear conditioning. Mice were allowed to rest for two days between each behavior test. All mice received scopolamine except for one of the control groups, which received saline as a control. Mice were sacrificed 24 hours after the last behavioral test for tissue harvesting.
Fear conditioning to either a cue or a context represents a form of associative learning. The read-out that is measured in contextual and cued fear conditioning is a freezing response that occurs following the pairing of an unconditioned stimulus (US), such as a foot shock, with a conditioned stimulus (CS), such as a particular context or cue (tone). The mouse will freeze if it remembers and associates that environment with the aversive stimulus. The hippocampus and the amygdala are required for fear memory where the hippocampus is involved in the formation and retrieval of context fear associations and the amygdala is involved in conditioning and recall of associations to contextual and discrete cues. This assay used fear conditioning chambers from Med Associates Inc. with Video Freeze Software (Med Associates Inc, St. Albans, VT, USA). On Day 1, mice were trained by allowing them to explore the chamber for 120 sec, mice were then presented with a 30-sec tone (2 kHz with 85 dB intensity) immediately followed by a 2-sec foot shock (0.7 mA). The tone-shock pairing was repeated following a 30-sec interval and the mice were again allowed to explore for 120 sec before removing them from the chamber. On Day 2, contextual memory, which requires a functioning hippocampus, was tested by placing the mice in the chambers and allowing them to explore for the same length of time as the previous day but without the tone and the shock. On Day 3, cued or emotional memory was tested, which relies on both hippocampus and amygdala. […] On Day 2, the time spent freezing is measured over the entire time in the chamber. […] The percentage of time spent freezing by each mouse is averaged per group and then groups can be compared and P-values calculated to determine statistical significance. On Day 3, the percentage of time spent freezing during the two tones is averaged per group, and then groups can be compared and P-values calculated to determine statistical significance. […]

neuroprotection assays = tested on: neuroprotection assays; design: method as in PMID 22194796; details: cited from earlier work
BDNF = tested on: BDNF; design: method as in PMID 22194796; details: normal rats; cited from earlier work

In the case of `COc1cccc(/C=N/N(C(=O)C(F)(F)F)c2ccc(C)cc2C)c1` [J147, (E)-N-(2,4-dimethylphenyl)-2,2,2-trifluoro-N'-(3methoxybenzyli-dene) acetohydrazide], the “inhibition, monoamine oxidase B” value ([1]; 10 μM J147) is reported as “greater than 60%”, the EC50 ([1]; dose response, re-assay after screening) is reported as 1.88 µM and the acute toxicity (Rats) is reported as “negative results”. For the same molecule, the “contextual memory (freezing Day 2)” value (C57BL/6J mice) was “it was not significant”, the “cued memory (freezing in response to the tone, Day 3)” value (C57BL/6J mice) was “neither effect was significant” and the EC50 (neuroprotection assays) was under 0.1 µM. For the same molecule, the “levels of BDNF in the hippocampus” value (BDNF) was “increases the levels of BDNF”.
